According to ChEMBL document CHEMBL1156467, “Inhibition of GLI-mediated transcription and tumor cell growth by small-molecule antagonists” (Proc Natl Acad Sci U S A, 2007):
Calls of active or inactive are those of the source. The rule behind the calls is not given here.

Tests used:
[1] = Reduction of expression of PTCH mRNA in human 22Rv cells; type: functional, cell-based
[2] = Antiproliferative activity against Ptch deficient mouse embryonic fibroblast at 10 uM by BrdU incorporation; type: functional
Mus musculus [3] = organism: Mus musculus; experiment: Reduction of Gil1 mRNA levels at 10 uM in Ptch deficient mouse embryonic fibroblast; type: functional
Mus musculus [4] = organism: Mus musculus; experiment: Reduction of Ptch1-lacZ level in mouse embryonic fibroblast by luminometric assay; type: functional
HEK293 [5] = experiment: Inhibition of beta galactosidase in HEK293 cells; type: cell-based; conditions: Homo sapiens
[6] = Reduction in expression of Hedgehog target gene Gli1 in Sufu deficient mouse embryonic fibroblast; type: functional
MEF = experiment: Reduction in expression of Hedgehog target gene Hip1 in Sufu deficient mouse MEF cells; type: functional, cell-based
Mus musculus [7] = organism: Mus musculus; experiment: Antiproliferative activity against mouse embryonic fibroblast at 10 uM assessed as microarray method; type: functional
[8] = biological target: T1, Zinc finger protein GLI1 (Homo sapiens) (UniProt P08151); experiment: Inhibition of GLI via PKA activation in HEK293 cells; type: cell-based
T1 sequence (whole entry): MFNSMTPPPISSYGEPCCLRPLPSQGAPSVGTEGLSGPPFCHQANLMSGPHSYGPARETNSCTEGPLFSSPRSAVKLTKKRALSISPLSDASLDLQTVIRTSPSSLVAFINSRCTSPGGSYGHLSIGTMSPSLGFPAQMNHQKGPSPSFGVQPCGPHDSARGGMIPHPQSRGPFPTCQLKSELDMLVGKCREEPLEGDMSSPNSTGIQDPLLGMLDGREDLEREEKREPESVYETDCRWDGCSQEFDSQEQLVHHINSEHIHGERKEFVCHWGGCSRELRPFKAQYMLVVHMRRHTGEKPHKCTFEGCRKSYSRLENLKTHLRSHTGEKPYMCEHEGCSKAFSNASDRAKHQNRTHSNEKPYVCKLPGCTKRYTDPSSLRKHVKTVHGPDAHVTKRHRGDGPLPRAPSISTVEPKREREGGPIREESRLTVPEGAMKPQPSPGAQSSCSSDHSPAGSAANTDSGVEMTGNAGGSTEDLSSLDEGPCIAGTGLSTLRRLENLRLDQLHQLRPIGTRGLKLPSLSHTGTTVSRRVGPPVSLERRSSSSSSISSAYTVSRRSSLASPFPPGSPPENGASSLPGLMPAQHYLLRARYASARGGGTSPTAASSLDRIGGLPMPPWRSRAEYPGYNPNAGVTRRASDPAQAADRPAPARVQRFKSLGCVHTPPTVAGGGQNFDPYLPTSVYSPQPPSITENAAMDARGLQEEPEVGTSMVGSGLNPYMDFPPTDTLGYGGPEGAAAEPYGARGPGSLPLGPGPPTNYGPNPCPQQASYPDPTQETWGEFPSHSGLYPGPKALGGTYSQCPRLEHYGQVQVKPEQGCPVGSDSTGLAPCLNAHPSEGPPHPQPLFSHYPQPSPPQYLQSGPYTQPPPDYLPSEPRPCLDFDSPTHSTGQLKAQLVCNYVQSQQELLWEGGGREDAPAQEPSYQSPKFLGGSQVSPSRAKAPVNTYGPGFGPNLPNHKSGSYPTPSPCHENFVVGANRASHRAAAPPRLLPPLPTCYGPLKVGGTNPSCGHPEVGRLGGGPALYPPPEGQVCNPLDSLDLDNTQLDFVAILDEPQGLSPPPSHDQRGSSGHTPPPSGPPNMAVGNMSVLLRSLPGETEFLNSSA

[9] = biological target: T1, Zinc finger protein GLI1 (Homo sapiens); experiment: Alteration in DNA binding to GLI1 in HEK293 cells; type: cell-based
HEK293 [10] = experiment: Inhibition of nuclear accumulation of GLI mutant in HEK293 cells; type: functional, cell-based; conditions: Homo sapiens
HEK293 [11] = experiment: Inhibition of nuclear accumulation of wild type GLI in HEK293 cells; type: functional, cell-based; conditions: Homo sapiens
NIH3T3 [12] = experiment: Effect on Hedgehog signaling in mouse NIH3T3 cells assessed as activation of TNF signaling; type: functional, cell-based
NIH3T3 [13] = experiment: Effect on Hedgehog signaling in mouse NIH3T3 cells assessed as activation of NF kappaB; type: functional, cell-based
NIH3T3 [14] = experiment: Effect on Hedgehog signaling in mouse NIH3T3 cells assessed as transactivation of glucocorticoid receptor; type: functional, cell-based
NIH3T3 [15] = experiment: Effect on Hedgehog signaling in mouse NIH3T3 cells assessed as transactivation of Ras-Raf-Mek-Mapk cascade; type: functional, cell-based
[16] = biological target: T1, Zinc finger protein GLI1 (Homo sapiens); experiment: Reduction of GLI1 mediated transcription in HEK293 cells by luciferase reporter assay; type: cell-based
[17] = biological target: Zinc finger protein GLI2 (Homo sapiens) (UniProt P10070); experiment: Reduction of GLI2 mediated transcription in HEK293 cells by luciferase reporter assay; type: cell-based
[18] = biological target: T2, Zinc finger protein GLI1 (Mus musculus) (UniProt P47806); experiment: Inhibition of GLI1 induced hedgehog signaling in mouse NIH3T3 cells; type: cell-based
T2 sequence (whole entry): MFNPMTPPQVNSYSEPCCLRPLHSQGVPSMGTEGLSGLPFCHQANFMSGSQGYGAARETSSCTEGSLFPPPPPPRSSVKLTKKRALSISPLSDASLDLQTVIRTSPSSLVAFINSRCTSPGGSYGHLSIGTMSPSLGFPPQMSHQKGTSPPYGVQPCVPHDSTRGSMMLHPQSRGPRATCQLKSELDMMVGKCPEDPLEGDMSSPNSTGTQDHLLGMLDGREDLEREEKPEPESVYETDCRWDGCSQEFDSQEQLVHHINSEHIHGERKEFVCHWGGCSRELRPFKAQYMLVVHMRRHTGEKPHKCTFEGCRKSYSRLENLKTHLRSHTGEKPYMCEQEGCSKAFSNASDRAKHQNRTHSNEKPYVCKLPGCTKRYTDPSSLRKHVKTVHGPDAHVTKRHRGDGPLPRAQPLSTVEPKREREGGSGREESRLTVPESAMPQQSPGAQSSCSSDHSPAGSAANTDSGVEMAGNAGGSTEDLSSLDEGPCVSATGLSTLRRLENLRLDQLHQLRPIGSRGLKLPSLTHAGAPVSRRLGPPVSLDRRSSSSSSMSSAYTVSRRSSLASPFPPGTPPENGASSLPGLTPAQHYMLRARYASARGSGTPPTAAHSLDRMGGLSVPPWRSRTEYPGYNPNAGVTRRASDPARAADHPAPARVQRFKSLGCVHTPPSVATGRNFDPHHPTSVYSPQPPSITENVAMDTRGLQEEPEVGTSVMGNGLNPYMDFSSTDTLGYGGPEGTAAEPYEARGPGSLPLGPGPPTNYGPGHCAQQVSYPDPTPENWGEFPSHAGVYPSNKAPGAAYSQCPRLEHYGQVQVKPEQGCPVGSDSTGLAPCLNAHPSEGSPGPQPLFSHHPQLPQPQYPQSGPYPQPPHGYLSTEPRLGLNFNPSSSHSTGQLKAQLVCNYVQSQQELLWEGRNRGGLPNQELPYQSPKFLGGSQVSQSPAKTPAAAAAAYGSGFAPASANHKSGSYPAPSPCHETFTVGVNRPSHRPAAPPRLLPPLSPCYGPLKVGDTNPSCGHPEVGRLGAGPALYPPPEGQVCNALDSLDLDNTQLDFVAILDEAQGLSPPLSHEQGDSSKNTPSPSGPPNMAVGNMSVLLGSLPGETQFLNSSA

NIH3T3 [19] = experiment: Cytotoxicity against mouse NIH3T3 cells at 10 uM after 48 hrs assessed as reduction in cell viability by MTS assay; type: functional, cell-based
Mus musculus [20] = organism: Mus musculus; experiment: Cytotoxicity against wild type mouse embryonic fibroblast at 10 uM after 48 hrs assessed as reduction in cell viability by MTS assay; type: functional
HepG2 [21] = experiment: Cytotoxicity against human HepG2 cells at 10 uM after 48 hrs assessed as reduction in cell viability by MTS assay; type: functional, cell-based
[22] = Inhibition of Hedgehog signaling in […] Shh-L2 cells; type: functional, cell-based
NIH3T3 [23] = experiment: Inhibition of Hedgehog/Gli1 mediated transformation in mouse NIH3T3 cells at 10 uM; type: functional, cell-based
PANC-1 [24] = experiment: Reduction in GLI1 expression in human PANC1 cells at 5 uM; type: functional, cell-based
PANC-1 [25] = experiment: Reduction in PTCH expression in human PANC1 cells at 5 uM; type: functional, cell-based
[26] = Reduction in GlI1 expression in human 22Rv cells at 5 uM; type: functional, cell-based
[27] = Reduction in PTCH expression in human 22Rv cells at 5 uM; type: functional, cell-based
HepG2 [28] = experiment: Inhibition of Gli1 dependent growth of human HepG2 cells at 5 uM; type: functional; parameters: scale not given: the % may be the effect or the level left
Jurkat [29] = experiment: Inhibition of Gli1 dependent growth of human Jurkat cells at 5 uM; type: functional; parameters: scale not given: the % may be the effect or the level left
PANC-1 [30] = experiment: Inhibition of Gli1 dependent growth of human PANC1 cells at 5 uM; type: functional; parameters: scale not given: the % may be the effect or the level left
[31] = Inhibition of Gli1 dependent growth of human 22Rv cells at 5 uM; type: functional; parameters: scale not given: the % may be the effect or the level left
Homo sapiens = experiment: Antitumor activity in GLI1 positive human 22Rv cells xenografted mouse model at 50 mg/kg, sc after 18 days; type: functional, organism-based; parameters: dose 50 mg/kg
HepG2 [32] = experiment: Induction of apoptosis in human HepG2 cells assessed as caspase3/7 cleavage by luminometric assay; type: functional, cell-based
CWR22R = experiment: Induction of apoptosis in human 22Rv1 cells assessed as caspase3/7 cleavage by luminometric assay; type: functional, cell-based
Jurkat [33] = experiment: Induction of apoptosis in human Jurkat cells assessed as caspase3/7 cleavage by luminometric assay; type: functional, cell-based
HEK293 [34] = experiment: Induction of apoptosis in HEK293 cells assessed as caspase3/7 cleavage by luminometric assay; type: functional, cell-based; conditions: Homo sapiens
DU146 = experiment: Induction of apoptosis in human […] cells assessed as caspase3/7 cleavage by luminometric assay; type: functional, cell-based
NIH3T3 [35] = experiment: Induction of apoptosis in mouse NIH3T3 cells assessed as caspase3/7 cleavage by luminometric assay; type: functional, cell-based

Chain of Zinc finger protein GLI2 (Homo sapiens) (P10070 whole entry): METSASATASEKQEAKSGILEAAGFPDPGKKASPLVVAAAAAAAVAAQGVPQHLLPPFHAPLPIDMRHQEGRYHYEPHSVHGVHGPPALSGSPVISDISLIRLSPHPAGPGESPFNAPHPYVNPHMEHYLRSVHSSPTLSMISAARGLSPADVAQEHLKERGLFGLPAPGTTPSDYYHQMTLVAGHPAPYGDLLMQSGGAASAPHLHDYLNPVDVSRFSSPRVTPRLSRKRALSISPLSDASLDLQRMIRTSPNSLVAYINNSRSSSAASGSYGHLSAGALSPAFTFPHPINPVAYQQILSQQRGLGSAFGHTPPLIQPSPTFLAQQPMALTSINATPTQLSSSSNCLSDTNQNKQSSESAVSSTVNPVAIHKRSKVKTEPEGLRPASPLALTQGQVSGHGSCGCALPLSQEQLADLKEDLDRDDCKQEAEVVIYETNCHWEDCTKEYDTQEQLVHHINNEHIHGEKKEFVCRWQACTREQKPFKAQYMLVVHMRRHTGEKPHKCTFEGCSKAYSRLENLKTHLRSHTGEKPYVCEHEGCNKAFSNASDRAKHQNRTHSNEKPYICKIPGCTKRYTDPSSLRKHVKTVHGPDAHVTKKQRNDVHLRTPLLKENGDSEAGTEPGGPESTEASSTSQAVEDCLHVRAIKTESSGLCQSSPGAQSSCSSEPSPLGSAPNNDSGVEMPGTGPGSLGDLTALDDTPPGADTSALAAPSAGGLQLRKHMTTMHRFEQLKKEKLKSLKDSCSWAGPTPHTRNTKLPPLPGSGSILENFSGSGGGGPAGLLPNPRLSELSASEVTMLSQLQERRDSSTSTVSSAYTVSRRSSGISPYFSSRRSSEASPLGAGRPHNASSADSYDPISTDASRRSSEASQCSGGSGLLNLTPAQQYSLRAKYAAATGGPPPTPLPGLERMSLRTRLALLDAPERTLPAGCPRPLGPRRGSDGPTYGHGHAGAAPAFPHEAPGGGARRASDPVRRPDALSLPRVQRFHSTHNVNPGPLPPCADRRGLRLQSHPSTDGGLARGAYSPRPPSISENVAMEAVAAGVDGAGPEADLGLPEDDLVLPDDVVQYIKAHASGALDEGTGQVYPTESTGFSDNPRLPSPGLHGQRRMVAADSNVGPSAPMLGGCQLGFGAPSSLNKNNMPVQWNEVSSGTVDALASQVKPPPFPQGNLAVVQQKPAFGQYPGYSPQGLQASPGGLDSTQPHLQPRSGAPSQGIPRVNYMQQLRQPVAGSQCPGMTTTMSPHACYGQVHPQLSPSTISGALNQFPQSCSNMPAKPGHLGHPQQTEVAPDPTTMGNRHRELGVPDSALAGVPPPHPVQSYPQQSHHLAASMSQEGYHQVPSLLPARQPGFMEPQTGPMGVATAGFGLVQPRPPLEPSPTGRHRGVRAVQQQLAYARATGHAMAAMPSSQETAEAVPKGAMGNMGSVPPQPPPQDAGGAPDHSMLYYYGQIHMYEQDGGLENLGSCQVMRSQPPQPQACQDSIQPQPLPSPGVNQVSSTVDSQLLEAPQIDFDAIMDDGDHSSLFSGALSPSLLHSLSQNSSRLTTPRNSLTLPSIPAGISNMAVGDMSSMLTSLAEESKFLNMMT

Row | Activity [8] | Activity [9] | Activity [16] | Activity [17] | Activity [18] | IC50 [22] [µM] | Compound | Activity [1] | Activity [2] [%] | Activity (Mus musculus [3]) | Activity (Mus musculus [4]) | Activity (HEK293 [5]) | Activity [6] | Activity (MEF) | Activity (HEK293 [10]) | Activity (HEK293 [11]) | Activity (NIH3T3 [12]) | Activity (NIH3T3 [13]) | Activity (NIH3T3 [14]) | Activity (NIH3T3 [15]) | Activity (NIH3T3 [23]) | other results
1 | – | – | – | – | – | – | CC1=C2C[C@H]3[C@@H](CC=C4C[C@@H](O)CC[C@@]43C)[C@@H]2CC[C@]12O[C@@H]1C[C@H](C)CN[C@H]1[C@H]2C [CYCLOPAMINE] | Active | 40 | Active | Active | Active | inactive | inactive | – | – | – | – | – | – | – | –
2 | inactive | inactive | Active | Active | Active | 5 | CN(C)c1ccccc1CN1CCCN(Cc2ccccc2N(C)C)C1c1ccncc1 | Active | 40 | Active | Active | Active | Active | Active | Active | Active | inactive | inactive | inactive | inactive | Active | Activity (Mus musculus [7]): Active; Activity (NIH3T3 [19]): inactive; Activity (Mus musculus [20]): inactive; Activity (HepG2 [21]): inactive; Activity (PANC-1 [24]): Active; Activity (PANC-1 [25]): Active; Activity [26]: Active; Activity [27]: Active; Activity (HepG2 [28]): 0%; Activity (Jurkat [29]): 0%; Activity (PANC-1 [30]): 40%; Activity [31]: 40%; Activity (Homo sapiens): Active; Activity (HepG2 [32]): inactive; Activity (CWR22R): inactive; Activity (Jurkat [33]): inactive; Activity (HEK293 [34]): inactive; Activity (DU146): inactive; Activity (NIH3T3 [35]): inactive
3 | inactive | inactive | Active | Active | Active | 5 | c1cc(-c2sc(-c3ccncc3)c(-c3ccncc3)c2-c2ccncc2)ccn1 | Active | 40 | Active | Active | Active | Active | Active | Active | Active | inactive | inactive | inactive | inactive | Active | Activity (PANC-1 [24]): Active; Activity (PANC-1 [25]): Active; Activity [26]: Active; Activity [27]: Active; Activity (HepG2 [28]): 0%; Activity (Jurkat [29]): 0%; Activity (PANC-1 [30]): 40%; Activity [31]: 40%; Activity (Homo sapiens): Active; Activity (HepG2 [32]): inactive; Activity (CWR22R): inactive; Activity (Jurkat [33]): inactive; Activity (HEK293 [34]): inactive; Activity (DU146): inactive; Activity (NIH3T3 [35]): inactive
